ChEMBL document CHEMBL3621154 (Medchemcomm, 2014)

Assays:
[1] = molecular target: T1, Amine oxidase [flavin-containing] B (Homo sapiens, UniProt P27338)
T1 sequence (P27338 whole entry): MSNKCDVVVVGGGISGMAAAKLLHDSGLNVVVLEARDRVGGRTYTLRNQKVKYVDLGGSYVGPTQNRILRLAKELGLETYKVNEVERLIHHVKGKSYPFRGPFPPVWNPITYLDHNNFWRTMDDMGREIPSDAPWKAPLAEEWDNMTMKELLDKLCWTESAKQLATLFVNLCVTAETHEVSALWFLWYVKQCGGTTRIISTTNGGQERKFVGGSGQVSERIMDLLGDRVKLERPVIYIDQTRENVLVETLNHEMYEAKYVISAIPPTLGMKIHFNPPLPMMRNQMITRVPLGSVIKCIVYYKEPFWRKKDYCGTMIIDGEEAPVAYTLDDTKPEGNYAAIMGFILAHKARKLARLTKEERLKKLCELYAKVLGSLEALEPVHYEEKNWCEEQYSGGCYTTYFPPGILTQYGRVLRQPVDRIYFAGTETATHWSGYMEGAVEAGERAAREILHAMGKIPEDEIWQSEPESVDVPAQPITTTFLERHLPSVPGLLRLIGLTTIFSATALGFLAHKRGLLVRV
Description: Inhibition of MAOB (unknown origin) by luminiscent assay

[2] = molecular target: T2, Amine oxidase [flavin-containing] A (Homo sapiens, UniProt P21397)
T2 sequence (P21397 whole entry): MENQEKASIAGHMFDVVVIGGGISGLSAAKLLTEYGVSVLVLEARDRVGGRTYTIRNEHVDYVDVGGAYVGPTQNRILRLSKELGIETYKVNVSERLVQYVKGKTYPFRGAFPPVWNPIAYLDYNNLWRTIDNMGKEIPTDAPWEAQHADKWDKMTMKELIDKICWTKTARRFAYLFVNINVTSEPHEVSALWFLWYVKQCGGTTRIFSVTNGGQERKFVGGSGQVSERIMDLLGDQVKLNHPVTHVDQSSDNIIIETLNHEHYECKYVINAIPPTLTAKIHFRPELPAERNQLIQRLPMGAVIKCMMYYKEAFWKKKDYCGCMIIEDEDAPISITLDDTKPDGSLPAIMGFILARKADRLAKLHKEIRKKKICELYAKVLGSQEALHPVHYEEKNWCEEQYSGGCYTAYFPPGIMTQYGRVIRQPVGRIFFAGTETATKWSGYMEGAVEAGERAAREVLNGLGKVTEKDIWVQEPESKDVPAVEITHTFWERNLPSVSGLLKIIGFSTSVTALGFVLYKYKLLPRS
Description: Inhibition of MAOA (unknown origin) by luminiscent assay

Compound	IC50 [1] [µM]	IC50 [2] [µM]
COc1ccccc1CNc1n[nH]c(NCc2ccccc2OC)n1	> 100	> 100
Nc1nnc(NCc2c(Cl)cccc2Oc2ccccc2)[nH]1	> 100	> 100
